“Also recorded” adds a separate entry of the source.
What was measured:
[1] = test system: CLIP^+ B cells and lymphocyte subsets in spleen and lymph nodes; experiment: CpG-ODN (TLR9) induced chronic hyperimmune activation in B6.129 mice with or without peptide; type: in vivo, mouse
Protocol: FIG. 14 depicts that administration of targeted peptide in combination with CpG-ODN reverses the inflammatory effects of TLR9 activation. FIG. 14a: B6.129 mice were injected with CpG-ODN, a TLR9 agonist without (black squares) or with VGV-hB (black circles). Total spleen cell recoveries (top panel) and lymph node cell recoveries (lower panel) at 24, 72, and 96 hours are reported. FIG. 14b: spleen cells from untreated B6.129 (upper left panel) mice, spleen cells from mice injected intraperitoneally with CpG-ODN for 48 hours (upper right panel), spleen cells from mice injected intraperitoneally with CpG-ODN+targeted peptide (VGV-hB) (lower left panel), or spleen cells from mice injected intraperitoneally with CpG-ODN+scrambled peptide (VGV-sP) (lower right panel), were harvested and stained using anti-mouse B220-PE Cy5 versus 15G4-FITC anti-mouse CLIP/I-Ab Cells were analyzed flow-cytometrically using two-dimensional dot plot analysis. FIGS. 14c & 14d: individual B6.129 animals were injected with CpG-ODN and one of three doses of peptide replacement, with either VGV-hB (FIG. 14c) or VGV-sB (FIG. 14d). As indicated, for each dose, four to six animals were injected with each of three doses, at 0.5, 5, and 50 μg per injection. Splenocytes were removed after 48 hours, stained using anti-mouse B220-PE versus 15G4-FITC anti-mouse CLIP/I-Ab. Cells were acquired and analyzed with flow cytometry, using two-dimensional dot plot analysis. Percentages of CLIP+ B cells were plotted using scatter plot analysis. The formula for the slope of each line is indicated in each of FIGS. 14c & 14d.
FIG. 15 depicts the effects of targeted peptides on the distribution of TLR activated lymphoid subsets of B cells, CD4+ T cells, CD8+ T cells, and on CD4+ T regulatory cells. FIG. 15a: B6.129 mice were injected with CpG-ODN without (squares) or with (circles) VGV-hB. Spleen (solid black symbols) and lymph nodes (open symbols) were harvested at 24, 72, and 96 hours, and stained using anti-mouse B220-PE versus 15G4-FITC anti-mouse CLIP/I-Ab. Data were plotted as percent CLIP+ B cells from either spleen or node. FIG. 15b: B6.129 mice were injected with CpG-ODN without (squares) or with (circles) VGV-hB. Spleen (solid black symbols) and lymph nodes (open symbols) were harvested at 24, 72, and 96 hours, and stained using anti-mouse CD8-PE. Data were plotted as percent CD8+ T cells from either spleen or node as indicated. FIG. 15c: B6.129 mice were injected with CpG-ODN without (squares) or with (circles) VGV-hB. Spleen (solid black symbols) and lymph nodes (open symbols) were harvested at 24, 72, and 96 hours, and stained using anti-mouse CD4 GK1.5-FITC. Data were plotted as percent CD4+ T cells from either spleen or node. FIG. 15d: B6.129 mice were injected with CpG-ODN without (squares) or with (circles) VGV-hB. Spleen (solid black symbols) and lymph nodes (open symbols) were harvested at 24, 72, and 96 hours, and stained using anti-mouse CD4 GK1.5-PE versus anti-mouse FoxP3-FITC. Data were plotted as percent CD4+ FoxP3+ T cells from either spleen or node.
FIG. 16 depicts that TLR activation and peptide reversal differentially affect cell death of lymphocyte subsets. FIG. 16a: B6.129 mice were injected with CpG-ODN without (solid black lines) or with VGV-hB (dashed lines). Cells were counted and viability was determined flow cytometrically. T cell viability 48 hours subsequent to CPG-ODN treatment alone is indicated by solid circles and solid black line; T cell viability, 48 hours after treatment with CpG-ODN and VGV-hB, is indicated by solid squares and dashed line. B cell viability, CpG-ODN treatment alone, is indicated by black x's on a solid black line; B cell viability after CpG-ODN and VGV-hB is indicated by solid black triangles and dashed lines. FIG. 16b: Ag-specific T cell hybridomas induce apoptosis B cells. FIG. 16c: Ag-specific T cell hybridomas induce apoptosis in resting and in CpG-ODN stimulated splenocytes, but not in antigen receptor engaged B cells. […]

[2] = test system: cell surface CLIP on Raji and Daudi cells; experiment: Competition of synthetic peptides with cell surface CLIP (Fitc anti-human CLIP); type: cell-based; details: biotinylated competing peptide
Description: Based on a computational model comparing the peptide content of TNP mixture and identifying those peptides that would have the likeliest ability to compete for the peptide/antigen binding site for MHC class II (human HLA-DR, DP, and DQ), several peptide candidates were synthesized and examined for activity. The purpose of the study was to determine if synthetic peptides can compete for binding with CLIP peptides as measured with either Fitc anti-human CLIP antibody or, comparatively in the case of biotinylated peptides, with Streptavidin.
Cell Culture Conditions: The Raji and Daudi cell lines were purchased from American Type Culture Collection, were thawed, and grown in RPMI 1640 medium supplemented with standard supplements, including 10% fetal calf serum, gentamycin, penicillin, streptomycin, sodium pyruvate, HEPES buffer, 1-glutamine, and 2-ME.
Protocol: Cells were plated into a 12 well plate with 3 mls total volume containing approximately 1.5×10^6/well for Daudi cells and 3.0×10^6/well for Raji cells. Treatment groups included no treatment as control; MKN 3 and MKN 5 at 50 microMolar final concentration based on the reported molarity of the synthesized compounds.
The cells were incubated at 37° C. in an atmosphere containing 5% CO2 and approximately 92% humidity. The cells were incubated for 4 and 24 hours. At each time point, the cells from that experimental time were harvested and stained for flow cytometric analysis of cell surface expression of CLIP (MHC Class II invariant peptide, human) by using the commercially available (Becton/Dickinson/PHarmingen) anti-human CLIP Fitc. Catalogue #555981 versus Streptavidin.
Harvested cells were stained using standard staining procedure that called for a 1:100 dilution of Fitc-anti-human CLIP or isotype control versus 1:200 dilution of the commercially prepared Streptavidin. Following staining on ice for 25 minutes, cells were washed with PBS/FCS and resuspended in 100 microliters and added to staining tubes containing 400 microliters of PBS. Samples were acquired and analyzed on a Coulter Excel Flow Cytometer.
In the Histogram analyses of FIGS. 5-7 the Y axis represents cell number of the 5000 live cells versus the X axis which is a reflection of relative Fitc fluorescence versus Streptavidin-PE (eBioscience, Cat. #12-4317) that will bind with high affinity to cell-bound biotinylated peptides. The distance between the histogram from the isotype control staining versus the histogram reflecting the specific stain and is a measure of level of cell surface CLIP or the biotinylated peptide when stained with Streptavidin on a population of live Raji or Daudi cells as indicated.

[3] = VGV-hB in combination with TLR 9 stimulation, FIG. 16a

Sequence: FRIMAVLAS
- effect of CpG-ODN on total cell numbers, absolute numbers of B cells and CLIP^+ B cell distribution between spleen and lymph node ([1]; 24, 72, 96 hours, FIG. 15a): reduced
- percent of CpG-induced CLIP^+ B cells in spleen ([1]; CpG-ODN plus peptide intraperitoneally, 48 hours, FIG. 14b): reversed the effects of CPG alone
- CD8^+ T cells ([1]; CpG-ODN with VGV-hB): promotes expansion of CD8^+ T cells
- CD4^+FoxP3^+ Tregs in the lymph nodes ([1]; FIG. 15d, 15e, listed as VGV-hB): reversible; also recorded: decreases in Tregs
- B cell death [1, 3]: increased B cell death
- number of live CD4^+ T cells [1, 3]: moderate increase in the number of live CD4^+ T cells
- reversal of CpG-ODN activation incl. percent of CLIP^+ B cells from total spleen, peptide titration ([1]; dose titration of peptide per mouse, FIGS. 14c and 14d): reversed the effects of CpG-ODN activation
- cell surface bound CLIP ([2]; 4 hours): small decreases in cell surface bound CLIP
- cell surface bound CLIP ([2]; 24 hours): significant decreases

Reference: patent US20100034839A1, “METHODS FOR TREATING VIRAL DISORDERS” (priority 2008, published 2010)
